{"source": "ChEMBL document CHEMBL3885881", "about": "“DrugMatrix”", "species_on_record": "Rattus norvegicus", "assay": "DrugMatrix - Regimen: Daily Repeat", "format": "toxicity, organism-based, Sprague-Dawley", "set-up": "regimen Daily Repeat, gender Male, age 6-8 weeks", "settings": "in vivo, po, route oral GAVAGE; for ABSOLUTE BASOPHIL / ABSOLUTE EOSINOPHIL / ABSOLUTE LYMPHOCYTE / ABSOLUTE MONOCYTE / ABSOLUTE SEGMENTED NEUTROPHIL / BASOPHIL / EOSINOPHIL / ERYTHROCYTE COUNT / HEMATOCRIT / HEMOGLOBIN / LEUKOCYTE COUNT / LYMPHOCYTE / MEAN CORPUSCULAR HEMOGLOBIN / MEAN CORPUSCULAR HEMOGLOBIN CONCENTRATION / MEAN CORPUSCULAR VOLUME / MONOCYTE / NEUTROPHIL / NUCLEATED RED BLOOD CELLS / PLATELET COUNT: tissue Blood", "key": {"[1]": {"settings": "7 mg/kg, 96 h, tissue Plasma, dose level M1, time 4 day, […]"}, "[2]": {"settings": "12 mg/kg, 72 h, dose level High, time 3 day, vehicle 100 % WATER"}, "[3]": {"settings": "12 mg/kg, 72 h, tissue Plasma, dose level High, time 3 day, vehicle 100 % WATER"}, "[4]": {"settings": "12 mg/kg, 120 h, dose level High, time 5 day, vehicle 100 % WATER"}, "[5]": {"settings": "12 mg/kg, 120 h, tissue Plasma, dose level High, time 5 day, vehicle 100 % WATER"}}, "data": [{"smiles": "COc1ccc2c(c1)c(CC(=O)O)c(C)n2C(=O)c1ccc(Cl)cc1", "note": "[INDOMETHACIN]", "values": [{"measurement": "ALANINE AMINOTRANSFERASE", "setting": "[1]", "result": 65.33, "unit": "u/L"}, {"measurement": "ALBUMIN", "setting": "[1]", "result": 2.67, "unit": "G/DL"}, {"measurement": "ALKALINE PHOSPHATASE", "setting": "[1]", "result": 487, "unit": "u/L"}, {"measurement": "ASPARTATE AMINOTRANSFERASE", "setting": "[1]", "result": 260, "unit": "u/L"}, {"measurement": "BLOOD UREA NITROGEN", "setting": "[1]", "result": 49.33, "unit": "mg/dL"}, {"measurement": "CARBON DIOXIDE", "setting": "[1]", "result": 24.3, "unit": "mmol/L"}, {"measurement": "CHLORIDE", "setting": "[1]", "result": 100, "unit": "MEQ/L"}, {"measurement": "CHOLESTEROL", "setting": "[1]", "result": 61.33, "unit": "mg/dL"}, {"measurement": "CREATININE", "setting": "[1]", "result": 0.3, "unit": "mg/dL"}, {"measurement": "GLUCOSE", "setting": "[1]", "result": 83, "unit": "mg/dL"}, {"measurement": "LIPASE", "setting": "[1]", "result": 296.67, "unit": "u/L"}, {"measurement": "PHOSPHORUS", "setting": "[1]", "result": 8.35, "unit": "mg/dL"}, {"measurement": "POTASSIUM", "setting": "[1]", "result": 5.5, "unit": "MEQ/L"}, {"measurement": "SODIUM", "setting": "[1]", "result": 138, "unit": "MEQ/L"}, {"measurement": "TOTAL BILIRUBIN", "setting": "[1]", "result": 0.09, "unit": "mg/dL"}, {"measurement": "ABSOLUTE BASOPHIL", "setting": "[2]", "result": 0, "unit": "CELLS/uL"}, {"measurement": "ABSOLUTE EOSINOPHIL", "setting": "[2]", "result": 64, "unit": "CELLS/uL"}, {"measurement": "ABSOLUTE LYMPHOCYTE", "setting": "[2]", "result": 7403, "unit": "CELLS/uL"}, {"measurement": "ABSOLUTE MONOCYTE", "setting": "[2]", "result": 98, "unit": "CELLS/uL"}, {"measurement": "ABSOLUTE SEGMENTED NEUTROPHIL", "setting": "[2]", "result": 468.33, "unit": "CELLS/uL"}, {"measurement": "BASOPHIL", "setting": "[2]", "result": 0, "unit": "%"}, {"measurement": "EOSINOPHIL", "setting": "[2]", "result": 0.67, "unit": "%"}, {"measurement": "ERYTHROCYTE COUNT", "setting": "[2]", "result": 2.59, "unit": "x10E6/uL"}, {"measurement": "HEMATOCRIT", "setting": "[2]", "result": 16.8, "unit": "%"}, {"measurement": "HEMOGLOBIN", "setting": "[2]", "result": 6.83, "unit": "G/DL"}, {"measurement": "LEUKOCYTE COUNT", "setting": "[2]", "result": 8.03, "unit": "x10E3/uL"}, {"measurement": "LYMPHOCYTE", "setting": "[2]", "result": 93.33, "unit": "%"}, {"measurement": "MEAN CORPUSCULAR HEMOGLOBIN", "setting": "[2]", "result": 26.43, "unit": "pg"}, {"measurement": "MEAN CORPUSCULAR HEMOGLOBIN CONCENTRATION", "setting": "[2]", "result": 40.53, "unit": "G/DL"}, {"measurement": "MEAN CORPUSCULAR VOLUME", "setting": "[2]", "result": 65.07, "unit": "fL"}, {"measurement": "MONOCYTE", "setting": "[2]", "result": 1, "unit": "%"}, {"measurement": "NEUTROPHIL", "setting": "[2]", "result": 5, "unit": "%"}, {"measurement": "NUCLEATED RED BLOOD CELLS", "setting": "[2]", "result": "2.67 /100WBC"}, {"measurement": "PLATELET COUNT", "setting": "[2]", "result": 714.67, "unit": "x10E3/uL"}, {"measurement": "ALANINE AMINOTRANSFERASE", "setting": "[3]", "result": 21, "unit": "u/L"}, {"measurement": "ALBUMIN", "setting": "[3]", "result": 1.93, "unit": "G/DL"}, {"measurement": "ALKALINE PHOSPHATASE", "setting": "[3]", "result": 177.67, "unit": "u/L"}, {"measurement": "ASPARTATE AMINOTRANSFERASE", "setting": "[3]", "result": 46.33, "unit": "u/L"}, {"measurement": "BLOOD UREA NITROGEN", "setting": "[3]", "result": 15.33, "unit": "mg/dL"}, {"measurement": "CARBON DIOXIDE", "setting": "[3]", "result": 27, "unit": "mmol/L"}, {"measurement": "CHLORIDE", "setting": "[3]", "result": 104.33, "unit": "MEQ/L"}, {"measurement": "CHOLESTEROL", "setting": "[3]", "result": 69.67, "unit": "mg/dL"}, {"measurement": "CREATINE PHOSPHOKINASE", "setting": "[3]", "result": 148.33, "unit": "u/L"}, {"measurement": "CREATININE", "setting": "[3]", "result": 0.1, "unit": "mg/dL"}, {"measurement": "GLUCOSE", "setting": "[3]", "result": 146.67, "unit": "mg/dL"}, {"measurement": "LACTATE DEHYDROGENASE", "setting": "[3]", "result": 36, "unit": "u/L"}, {"measurement": "LIPASE", "setting": "[3]", "result": 8.33, "unit": "u/L"}, {"measurement": "PHOSPHORUS", "setting": "[3]", "result": 11, "unit": "mg/dL"}, {"measurement": "POTASSIUM", "setting": "[3]", "result": 4.8, "unit": "MEQ/L"}, {"measurement": "SODIUM", "setting": "[3]", "result": 143.4, "unit": "MEQ/L"}, {"measurement": "TOTAL BILIRUBIN", "setting": "[3]", "result": 0.1, "unit": "mg/dL"}, {"measurement": "TOTAL PROTEIN", "setting": "[3]", "result": 4.5, "unit": "G/DL"}, {"measurement": "URIC ACID", "setting": "[3]", "result": 0.53, "unit": "mg/dL"}, {"measurement": "ABSOLUTE BASOPHIL", "setting": "[4]", "result": 0, "unit": "CELLS/uL"}, {"measurement": "ABSOLUTE EOSINOPHIL", "setting": "[4]", "result": 18.5, "unit": "CELLS/uL"}, {"measurement": "ABSOLUTE LYMPHOCYTE", "setting": "[4]", "result": 2977, "unit": "CELLS/uL"}, {"measurement": "ABSOLUTE MONOCYTE", "setting": "[4]", "result": 109, "unit": "CELLS/uL"}, {"measurement": "ABSOLUTE SEGMENTED NEUTROPHIL", "setting": "[4]", "result": 495.5, "unit": "CELLS/uL"}, {"measurement": "BASOPHIL", "setting": "[4]", "result": 0, "unit": "%"}, {"measurement": "EOSINOPHIL", "setting": "[4]", "result": 0.5, "unit": "%"}, {"measurement": "ERYTHROCYTE COUNT", "setting": "[4]", "result": 3.63, "unit": "x10E6/uL"}, {"measurement": "HEMATOCRIT", "setting": "[4]", "result": 21.7, "unit": "%"}, {"measurement": "HEMOGLOBIN", "setting": "[4]", "result": 9.1, "unit": "G/DL"}, {"measurement": "LEUKOCYTE COUNT", "setting": "[4]", "result": 3.6, "unit": "x10E3/uL"}, {"measurement": "LYMPHOCYTE", "setting": "[4]", "result": 83, "unit": "%"}, {"measurement": "MEAN CORPUSCULAR HEMOGLOBIN", "setting": "[4]", "result": 25, "unit": "pg"}, {"measurement": "MEAN CORPUSCULAR HEMOGLOBIN CONCENTRATION", "setting": "[4]", "result": 41.8, "unit": "G/DL"}, {"measurement": "MEAN CORPUSCULAR VOLUME", "setting": "[4]", "result": 59.9, "unit": "fL"}, {"measurement": "MONOCYTE", "setting": "[4]", "result": 3, "unit": "%"}, {"measurement": "NEUTROPHIL", "setting": "[4]", "result": 13.5, "unit": "%"}, {"measurement": "NUCLEATED RED BLOOD CELLS", "setting": "[4]", "result": "1.5 /100WBC"}, {"measurement": "PLATELET COUNT", "setting": "[4]", "result": 1098.5, "unit": "x10E3/uL"}, {"measurement": "ALANINE AMINOTRANSFERASE", "setting": "[5]", "result": 17, "unit": "u/L"}, {"measurement": "ALBUMIN", "setting": "[5]", "result": 2.1, "unit": "G/DL"}, {"measurement": "ALKALINE PHOSPHATASE", "setting": "[5]", "result": 366, "unit": "u/L"}, {"measurement": "ASPARTATE AMINOTRANSFERASE", "setting": "[5]", "result": 84, "unit": "u/L"}, {"measurement": "BLOOD UREA NITROGEN", "setting": "[5]", "result": 37, "unit": "mg/dL"}, {"measurement": "CARBON DIOXIDE", "setting": "[5]", "result": 26, "unit": "mmol/L"}, {"measurement": "CHLORIDE", "setting": "[5]", "result": 108, "unit": "MEQ/L"}, {"measurement": "CHOLESTEROL", "setting": "[5]", "result": 66, "unit": "mg/dL"}, {"measurement": "CREATINE PHOSPHOKINASE", "setting": "[5]", "result": 224, "unit": "u/L"}, {"measurement": "CREATININE", "setting": "[5]", "result": 0.1, "unit": "mg/dL"}, {"measurement": "GLUCOSE", "setting": "[5]", "result": 132.5, "unit": "mg/dL"}]}]}
